Earlier results in patent US20240373890A1, “SWEETENER AND FLAVORING COMPOSITIONS PREPARED BY GLYCOSYLATED MOGROSIDES OR MONK FRUIT EXTRACTS, METHOD OF MAKING AND METHOD OF USE THEREOF” (EPC NATURAL PRODUCTS CO., LTD., priority 2021, published 2024).
Residues, ends and D or L forms follow the SMILES beside them.

settings: depends on the tested concentration compared with sucrose

Row | Molecule | Sweetness intensity compared with sucrose
1 | COC(=O)[C@H](Cc1ccccc1)NC(=O)[C@@H](N)CC(=O)O [Aspartame] (H-Asp-Phe-OMe) | 160-200 times
2 | C[C@H](CC[C@@H](O[C@@H]1O[C@H](CO[C@@H]2O[C@H](CO)[C@@H](O)[C@H](O)[C@H]2O)[C@@H](O)[C@H](O)[C@H]1O[C@@H]1O[C@H](CO)[C@@H](O)[C@H](O)[C@H]1O)C(C)(C)O)[C@H]1CC[C@@]2(C)[C@@H]3CC=C4[C@@H](CC[C@H](O[C@@H]5O[C@H](CO[C@@H]6O[C@H](CO)[C@@H](O)[C@H](O)[C@H]6O)[C@@H](O)[C@H](O)[C@H]5O)C4(C)C)[C@]3(C)[C@H](O)C[C@]12C [mogroside V] | 250-300 times
3 | O=S(=O)([O-])NC1CCCCC1.[Na+] [sodium cyclamate] | about 30 times
4 | OC[C@H]1O[C@H](O[C@]2(CCl)O[C@H](CCl)[C@@H](O)[C@@H]2O)[C@H](O)[C@@H](O)[C@H]1Cl [sucralose] | about 600 times
5 | thaumatin | about 2000 times
